Here are results for 34 compounds from US11702409B2, “Pyrazolyl derivatives useful as anti-cancer agents” (NOVARTIS AG, priority 2019, dated 2023).

The IC50 is the concentration that gives 50% inhibition.

This experiment addresses KRasG12C (M1-K169, biotinylated on the N-terminus) (Homo sapiens (Human), UniProt P01116, G12C). The experiment can be described thus: Covalent competition assay (scintillation proximity assay, competition with radiolabeled covalent probe Compound B). The settings on record: in vitro KRASG12C activity; 10 nM KRasG12C:GDP, 25 nM radio-ligand and 475 nM unlabelled ligand, incubated 2 hours; read-out: Covalent Competition Assay IC50. Format: binding. The method, then: The cells were lysed by 4 passages through an Avestin Emulsiflex at about 20000 psi and insoluble debris removed by centrifugation and filtered through a 0.45 μm Durapore membrane (Millipore). […] The protein in the flow through was subjected to a final polishing step on a HiLoad 16/60 Superdex 200 prep grade size-exclusion column pre-equilibrated with SEC-buffer (20 mM HEPES pH 7.4, 150 mM NaCl, 5 mM MgCl2, 1 μM GDP).
A scintillation proximity assay (SPA) was used to determine the potency of the compounds. This assay measures the ability of the test compound to compete with the radiolabeled covalent probe for binding to and covalently modify KRASG12C.
A serial dilution of the compounds to be tested is mixed with a fixed concentration of the radiolabeled covalent probe before incubation with KRASG12C:GDP as described below.
The reaction was started by addition of KRasG12C (M1-K169, biotinylated on the N-terminus) to the compounds and incubated for 2 hours with continuous agitation allowing for full modification of KRasG12C with probe or test compounds. […] The assay buffer contained 20 mM Tris-HCl pH 7.5 (Invitrogen), 150 mM NaCl (Sigma Aldrich), 0.1 mM MgCl2 (Sigma Aldrich), and 0.01% Tween-20 (Sigma Aldrich).
Evaluation was carried out using assay data analysis software (such as the standard Novartis in-house Helios software application, Novartis Institutes for BioMedical Research, unpublished) using the methods described in Formenko et al., Robust Regression for high-throughput screening.
Evaluation can also be carried out using commercially available software which is designed to derive IC50 values using 4-parameter fits (e.g. GraphPad Prism, XL fit).
A general note: In a scintillation proximity assay essentially only radioactivity close to the scintillant gives light.

As to `C=CC(=O)N1CC2(CC(n3nc(-c4ccc5c(cnn5C)c4)c(-c4c(Cl)c(C)cc5[nH]ncc45)c3C)C2)C1` (single isomer, unassigned) [Example 1a], the IC50 was 0.017 µM.
Take `C=CC(=O)N1CC2(CC(n3nc(C4=CCC(F)(F)CC4)c(-c4c(Cl)c(C)cc5[nH]ncc45)c3C)C2)C1` (single isomer, unassigned) [Example 3a]: the IC50 worked out at 0.465 µM.
The figure for `C=CC(=O)N1CC2(CC(n3nc(C4=CCC(F)(F)CC4)c(-c4c(Cl)c(C)cc5[nH]ncc45)c3C)C2)C1` (single isomer, unassigned) [Example 3b] is 1.2 µM.
As for `C=CC(=O)N1CC2(CC(n3nc(-c4ccc(CN5CCCS5(=O)=O)cc4)c(-c4c(Cl)c(C)cc5[nH]ncc45)c3C)C2)C1` (single isomer, unassigned) [Example 5a], the figure is 0.043 µM.
As for `C=CC(=O)N1CC2(CC(n3nc(-c4ccc(CN5CCCS5(=O)=O)cc4)c(-c4c(Cl)c(C)cc5[nH]ncc45)c3C)C2)C1` (single isomer, unassigned) [Example 5b], the figure is 15 µM; as for `C=CC(=O)N1CC2(CC(n3nc(-c4ccc(=O)n(C)c4)c(-c4c(Cl)c(C)cc5[nH]ncc45)c3C)C2)C1` (single isomer, unassigned) [Example 6a], 1.2 µM; as for `C=CC(=O)N1CC2(CC(n3nc(-c4ccc(=O)n(C)c4)c(-c4c(Cl)c(C)cc5[nH]ncc45)c3C)C2)C1` (single isomer, unassigned) [Example 6b], above 50 µM.
With `C=CC(=O)N1CC2(CC(n3nc(-c4ccc(-n5nccc5N)nc4)c(-c4c(Cl)c(C)cc5[nH]ncc45)c3C)C2)C1` (single isomer, unassigned) [Example 7a], the IC50 worked out at 0.162 µM.
As for `C=CC(=O)N1CC2(CC(n3nc(-c4ccc(-n5nccc5N)nc4)c(-c4c(Cl)c(C)cc5[nH]ncc45)c3C)C2)C1` (single isomer, unassigned) [Example 7b], the figure is above 5 µM; as for `C=CC(=O)N1CC2(CC(n3nc(-c4cnc5c(ccn5C)c4)c(-c4c(Cl)c(C)cc5[nH]ncc45)c3C)C2)C1` (single isomer, unassigned) [Example 8a], 0.066 µM; as for `C=CC(=O)N1CC2(CC(n3nc(-c4cnc5c(ccn5C)c4)c(-c4c(Cl)c(C)cc5[nH]ncc45)c3C)C2)C1` (single isomer, unassigned) [Example 8b], 2.9 µM.
As for `C=CC(=O)N1CC2(CC(n3nc(-c4ccnc(C#N)c4)c(-c4c(Cl)c(C)cc5[nH]ncc45)c3C)C2)C1` (single isomer, unassigned) [Example 9a], the figure is 0.743 µM; as for `C=CC(=O)N1CC2(CC(n3nc(-c4ccnc(C#N)c4)c(-c4c(Cl)c(C)cc5[nH]ncc45)c3C)C2)C1` (single isomer, unassigned) [Example 9b], above 50 µM; as for `C=CC(=O)N1CC2(CC(n3nc(-c4cncc(C#N)c4)c(-c4c(Cl)c(C)cc5[nH]ncc45)c3C)C2)C1` (single isomer, unassigned) [Example 10a], 1.2 µM.
As for `C=CC(=O)N1CC2(CC(n3nc(-c4cncc(C#N)c4)c(-c4c(Cl)c(C)cc5[nH]ncc45)c3C)C2)C1` (single isomer, unassigned) [Example 10b], the figure is above 50 µM; as for `C=CC(=O)N1CC2(CC(n3nc(-c4ccc(C#N)nc4)c(-c4c(Cl)c(C)cc5[nH]ncc45)c3C)C2)C1` (single isomer, unassigned) [Example 11a], 0.973 µM.
As for `C=CC(=O)N1CC2(CC(n3nc(-c4ccc(C#N)nc4)c(-c4c(Cl)c(C)cc5[nH]ncc45)c3C)C2)C1` (single isomer, unassigned) [Example 11b], the IC50 was above 50 µM.
The figure for `C=CC(=O)N1CC2(CC(n3nc(-c4ccc5[nH]ncc5c4)c(-c4c(Cl)c(C)cc5[nH]ncc45)c3C)C2)C1` (single isomer, unassigned) [Example 12a] is 0.024 µM; for `C=CC(=O)N1CC2(CC(n3nc(-c4ccc5[nH]ncc5c4)c(-c4c(Cl)c(C)cc5[nH]ncc45)c3C)C2)C1` (single isomer, unassigned) [Example 12b] it is 6.1 µM; for `C=CC(=O)N1CC2(CC(n3nc(-c4ccc(N5CCN(C)C5=O)cc4)c(-c4c(Cl)c(C)cc5[nH]ncc45)c3C)C2)C1` (single isomer, unassigned) [Example 13a] it is 0.018 µM.
For the compound `C=CC(=O)N1CC2(CC(n3nc(-c4ccc(N5CCN(C)C5=O)cc4)c(-c4c(Cl)c(C)cc5[nH]ncc45)c3C)C2)C1` (single isomer, unassigned) [Example 13b], the IC50 is 14.8 µM.
The figure for `C=CC(=O)N1CC2(CC(n3nc(-c4ccc5c(cnn5CCN(C)C)c4)c(-c4c(Cl)c(C)cc5[nH]ncc45)c3C)C2)C1` (single isomer, unassigned) [Example 15a] is 0.016 µM; for `C=CC(=O)N1CC2(CC(n3nc(-c4ccc5c(cnn5CCN(C)C)c4)c(-c4c(Cl)c(C)cc5[nH]ncc45)c3C)C2)C1` (single isomer, unassigned) [Example 15b] it is 4.8 µM; for `C=CC(=O)N1CC2(CC(n3nc(-c4ccc5nn(CCN(C)C)cc5c4)c(-c4c(Cl)c(C)cc5[nH]ncc45)c3C)C2)C1` (single isomer, unassigned) [Example 16a] it is 0.011 µM.
The figure for `C=CC(=O)N1CC2(CC(n3nc(-c4ccc5nn(CCN(C)C)cc5c4)c(-c4c(Cl)c(C)cc5[nH]ncc45)c3C)C2)C1` (single isomer, unassigned) [Example 16b] is 23.4 µM; for `C=CC(=O)N1CC2(CC(n3nc(-c4ccc5c(cnn5CCN5CCOCC5)c4)c(-c4c(Cl)c(C)cc5[nH]ncc45)c3C)C2)C1` (single isomer, unassigned) [Example 17a] it is 0.013 µM; for `C=CC(=O)N1CC2(CC(n3nc(-c4ccc5c(cnn5CCN5CCOCC5)c4)c(-c4c(Cl)c(C)cc5[nH]ncc45)c3C)C2)C1` (single isomer, unassigned) [Example 17b] it is 14.6 µM.
Consider `C=CC(=O)N1CC2(CC(n3nc(-c4cccnc4)c(-c4c(Cl)ccc5[nH]ncc45)c3C)C2)C1` (single isomer, unassigned) [Example 19a], for which the IC50 was determined as 1.9 µM.
As to `C=CC(=O)N1CC2(CC(n3nc(-c4cccnc4)c(-c4c(Cl)ccc5[nH]ncc45)c3C)C2)C1` (single isomer, unassigned) [Example 19b], the IC50 is above 50 µM.
As for `C=CC(=O)N1CC2(CC(n3nc(-c4cnc(N)c(F)c4)c(-c4c(Cl)c(C)cc5[nH]ncc45)c3C)C2)C1` (single isomer, unassigned) [Example 20a], the figure is 0.148 µM; as for `C=CC(=O)N1CC2(CC(n3nc(-c4cnc(N)c(F)c4)c(-c4c(Cl)c(C)cc5[nH]ncc45)c3C)C2)C1` (single isomer, unassigned) [Example 20b], 12.5 µM; as for `C=CC(=O)N1CC2(CC(n3nc(-c4ccc5c(c4)CN(C)C(=O)C5)c(-c4c(Cl)c(C)cc5[nH]ncc45)c3C)C2)C1` (single isomer, unassigned) [Example 21a], 0.06 µM.
In the case of `C=CC(=O)N1CC2(CC(n3nc(-c4ccc5c(c4)CN(C)C(=O)C5)c(-c4c(Cl)c(C)cc5[nH]ncc45)c3C)C2)C1` (single isomer, unassigned) [Example 21b], the IC50 was 15 µM.
On to `C=CC(=O)N1CC2(CC(n3nc(-c4ccc5c(c4)CCN5C(C)=O)c(-c4c(Cl)c(C)cc5[nH]ncc45)c3C)C2)C1` (single isomer, unassigned) [Example 22a], for which the IC50 was 0.023 µM.
